Like-named read-outs stand apart in the source and are kept apart here.
Assays:
human ATX = human ATX (Homo sapiens, UniProt Q13822); assay: Amplex Red activity assay (ATX inhibition, LPC hydrolysis); type: biochemical
Method: (§1) In a similar approach to TOOS Activity Assay, this widely used method detects the ATX ability to hydrolyze LPC using a test that monitors choline release using Amplex Red fluorescent reagent (10 mM), choline oxidase (0.2 U/mL) and Radish Peroxidase (HRP - 2 U/mL). All reactions were conducted with 2 nM pure ATX and 50 µM LPC (16:0 or 18:0) at 37 °C. Inhibitors (3 mM) were dissolved in dimethyl sulfoxide (DMSO) at concentrations from 0.001 to 5 µmol/L. Fluorescence values were measured on a fluorescent plate reader (Tecan Infinite 200). IC50 values were determined using the values from two independent experiments, using the sigmoid dose-response curve (PrismH software) from the equation f = y0 + a / (1 + exp (- (x-x0) / b) given from SigmaPlot 11.0.
(§2) Subsequently, 50 µL of a buffer solution containing 200 µM LPC 16:0 (final concentration 50 µM) were added to the reaction mixture followed by incubation for another 30 minutes at 37 °C. Finally, 50 µL of working solution containing 200 µM Amplex Red reagent and choline oxidase (0.2 U/mL) κα ? HRP (2 U/mL), in 50 mM Tris-HCl at pH 8.0 and 5 mM CaCl2, was added to begin the reaction. The reaction was monitored at 37 °C, in a fluorescence plate reader (Tecan Infinite 200) using excitation at 530 nm and reading at 590 nm, every five minutes for 30 minutes at 37°C. The IC50 value was calculated from two independent experiments, using the sigmoid dose-response curve (PrismH software) from the equation f=y0+a/(1+exp(-(x-x0)/b) given from SigmaPlot 11.0.
as §2, with “was” for “were”
as §2, with “was” for “were”, “Finally, 50 µL of working solution containing 200 µM Amplex Red reagent and choline oxidase (0.2 U/mL) κα ? HRP (2 U/mL), in 50 mM Tris-HCl at pH 8.0 and 5 mM CaCl2, was added to begin the reaction.” left out
as §2, with “was” for “were”, “Finally, 50 µL of working solution containing 200 µM Amplex Red reagent and choline oxidase (0.2 U/mL) κα ? HRP (2 U/mL), in 50 mM Tris-HCl at pH 8.0 and 5 mM CaCl2, was added to begin the reaction.” left out

mouse ATX = mouse ATX (Mus musculus, UniProt Q9R1E6); assay: as above; type: biochemical
Method: as §1, §2
as §2, with “was” for “were”, “Finally, 50 µL of working solution containing 200 µM Amplex Red reagent and choline oxidase (0.2 U/mL) κα ? HRP (2 U/mL), in 50 mM Tris-HCl at pH 8.0 and 5 mM CaCl2, was added to begin the reaction.” left out

[1] = human ATX final concentration 1 nM, LPC 16:0 50 µM, 37 °C, two independent experiments, read-out: IC50 value for human ATX inhibition
[2] = ATX final concentration 2 nM, LPC 16:0 50 µM, 37 °C, two independent experiments, read-out: IC50 value for the inhibition of mouse ATX

| Structure (SMILES) | IC50 (human ATX; [1]) | IC50 (mouse ATX; [2]) | further results |
| --- | --- | --- | --- |
| COC(C(=O)Nc1c2c(nn1-c1ccc(Br)cc1)CSC2)(c1ccccc1)C(F)(F)F (centres unmarked) [A17] | 2 µM |  |  |
| O=C(Nc1c2c(nn1-c1ccncc1)CSC2)c1cccc2ccccc12 [A16] | 7.5 µM |  |  |
| O=C(Nc1c2c(nn1-c1cnccn1)CSC2)c1cccc2ccccc12 [A14] | 1.3 µM | 2.5 µM |  |
| O=C(Nc1c2c(nn1-c1ccc(Br)cc1)CSC2)c1cc(Cl)cc(Cl)c1 [A18] |  |  | IC50 (human ATX; values marked *: evaluation performed in human ATX (hATX) 1 nM, read-out: IC50 (µM) (in mATX 2 nM)): 2.5 µM |
| O=C(O)c1ccc(-n2nc3c(c2NC(=O)c2cccc4ccccc24)CSC3)cc1 [A15] |  |  | IC50 (mouse ATX; mATX 2 nM (values without asterisk), read-out: IC50 (µM) (in mATX 2 nM)): 59.3 µM |
| O=C(Nc1c2c(nn1-c1ccc(Br)cc1)CSC2)c1cccc2ccccc12 [A4] | 3.5 µM | 12.7 µM |  |

Source: patent publication EP4175633B1, “THIENO[3,4-C]PYRAZOL-3-YL […] AUTOTAXIN INHIBITORS” (Uni-Pharma Kleon Tsetis Pharmaceutical Laboratories S.A., priority 2020, dated 2022)
